Source: PMC11345841, “Exploring 2-Sulfonylpyrimidine Warheads as Acrylamide Surrogates for Targeted Covalent Inhibition: A BTK Story” (Journal of Medicinal Chemistry, 2024)
Read-outs that look alike come from different tables or passages of the source.

How the values were obtained:
[1] = biological target: T1, EPHA4 (Homo sapiens, UniProt P54764); assay: KINOMEscan ScanTK; type: binding
T1 construct: purchased Eurofins DiscoverX KINOMEscan (scanTK)

[2] = biological target: T2, EPHA8 (Homo sapiens, UniProt P29322); assay: KINOMEscan ScanTK; type: binding
T2 construct: purchased Eurofins DiscoverX KINOMEscan (scanTK)
T2 sequence (P29322 28-1005): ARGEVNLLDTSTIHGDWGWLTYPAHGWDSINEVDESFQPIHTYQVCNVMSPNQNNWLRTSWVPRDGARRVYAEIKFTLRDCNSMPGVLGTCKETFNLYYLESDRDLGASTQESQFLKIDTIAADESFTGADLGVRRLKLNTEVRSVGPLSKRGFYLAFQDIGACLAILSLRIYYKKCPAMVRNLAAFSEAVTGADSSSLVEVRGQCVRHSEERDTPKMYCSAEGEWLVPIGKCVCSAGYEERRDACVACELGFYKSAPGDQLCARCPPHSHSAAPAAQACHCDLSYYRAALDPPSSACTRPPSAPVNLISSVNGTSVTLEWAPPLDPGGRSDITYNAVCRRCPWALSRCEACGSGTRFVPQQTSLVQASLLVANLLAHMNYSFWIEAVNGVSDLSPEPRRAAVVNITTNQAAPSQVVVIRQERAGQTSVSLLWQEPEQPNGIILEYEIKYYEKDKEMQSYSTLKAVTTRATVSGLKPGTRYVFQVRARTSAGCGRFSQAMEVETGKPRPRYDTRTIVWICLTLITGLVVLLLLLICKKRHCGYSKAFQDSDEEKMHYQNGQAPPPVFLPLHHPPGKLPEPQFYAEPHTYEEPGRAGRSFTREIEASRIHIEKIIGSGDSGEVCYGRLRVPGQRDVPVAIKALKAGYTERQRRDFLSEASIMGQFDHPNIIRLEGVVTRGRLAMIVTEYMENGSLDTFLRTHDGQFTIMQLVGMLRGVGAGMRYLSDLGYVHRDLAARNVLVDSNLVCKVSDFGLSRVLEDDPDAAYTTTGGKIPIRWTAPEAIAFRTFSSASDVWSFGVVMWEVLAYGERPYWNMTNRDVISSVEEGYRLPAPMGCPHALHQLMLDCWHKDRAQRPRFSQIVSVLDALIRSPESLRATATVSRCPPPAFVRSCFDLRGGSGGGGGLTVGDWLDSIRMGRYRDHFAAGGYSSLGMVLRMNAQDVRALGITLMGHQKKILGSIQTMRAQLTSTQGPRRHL

[3] = biological target: T3, FES (Homo sapiens, UniProt P07332); assay: KINOMEscan ScanTK; type: binding
T3 construct: purchased Eurofins DiscoverX KINOMEscan (scanTK)
T3 sequence (P07332 whole entry): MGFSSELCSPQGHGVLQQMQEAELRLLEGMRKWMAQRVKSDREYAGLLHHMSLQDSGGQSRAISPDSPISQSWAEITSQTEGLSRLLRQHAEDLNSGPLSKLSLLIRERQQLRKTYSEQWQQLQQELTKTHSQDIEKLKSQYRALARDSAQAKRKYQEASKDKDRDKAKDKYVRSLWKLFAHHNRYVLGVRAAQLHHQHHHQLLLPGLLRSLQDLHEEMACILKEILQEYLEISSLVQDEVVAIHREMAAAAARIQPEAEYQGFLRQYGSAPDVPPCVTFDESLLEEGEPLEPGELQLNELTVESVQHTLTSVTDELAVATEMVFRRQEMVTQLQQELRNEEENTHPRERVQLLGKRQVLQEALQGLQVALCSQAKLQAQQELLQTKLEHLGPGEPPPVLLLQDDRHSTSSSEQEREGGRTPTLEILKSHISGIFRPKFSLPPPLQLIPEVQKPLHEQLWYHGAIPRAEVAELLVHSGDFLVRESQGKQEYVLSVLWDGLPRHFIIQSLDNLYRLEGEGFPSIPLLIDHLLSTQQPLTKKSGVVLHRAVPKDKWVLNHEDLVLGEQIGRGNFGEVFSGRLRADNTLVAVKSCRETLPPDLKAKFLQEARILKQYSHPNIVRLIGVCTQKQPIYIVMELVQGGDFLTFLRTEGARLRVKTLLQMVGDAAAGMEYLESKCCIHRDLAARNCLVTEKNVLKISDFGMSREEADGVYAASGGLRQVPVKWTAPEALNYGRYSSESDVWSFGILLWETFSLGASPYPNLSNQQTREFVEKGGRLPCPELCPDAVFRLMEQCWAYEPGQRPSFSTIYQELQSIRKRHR

[4] = biological target: T4, FLT3 (Homo sapiens, UniProt P36888); assay: KINOMEscan ScanTK; type: binding
T4 construct: purchased Eurofins DiscoverX KINOMEscan (scanTK)
T4 sequence (P36888 27-993): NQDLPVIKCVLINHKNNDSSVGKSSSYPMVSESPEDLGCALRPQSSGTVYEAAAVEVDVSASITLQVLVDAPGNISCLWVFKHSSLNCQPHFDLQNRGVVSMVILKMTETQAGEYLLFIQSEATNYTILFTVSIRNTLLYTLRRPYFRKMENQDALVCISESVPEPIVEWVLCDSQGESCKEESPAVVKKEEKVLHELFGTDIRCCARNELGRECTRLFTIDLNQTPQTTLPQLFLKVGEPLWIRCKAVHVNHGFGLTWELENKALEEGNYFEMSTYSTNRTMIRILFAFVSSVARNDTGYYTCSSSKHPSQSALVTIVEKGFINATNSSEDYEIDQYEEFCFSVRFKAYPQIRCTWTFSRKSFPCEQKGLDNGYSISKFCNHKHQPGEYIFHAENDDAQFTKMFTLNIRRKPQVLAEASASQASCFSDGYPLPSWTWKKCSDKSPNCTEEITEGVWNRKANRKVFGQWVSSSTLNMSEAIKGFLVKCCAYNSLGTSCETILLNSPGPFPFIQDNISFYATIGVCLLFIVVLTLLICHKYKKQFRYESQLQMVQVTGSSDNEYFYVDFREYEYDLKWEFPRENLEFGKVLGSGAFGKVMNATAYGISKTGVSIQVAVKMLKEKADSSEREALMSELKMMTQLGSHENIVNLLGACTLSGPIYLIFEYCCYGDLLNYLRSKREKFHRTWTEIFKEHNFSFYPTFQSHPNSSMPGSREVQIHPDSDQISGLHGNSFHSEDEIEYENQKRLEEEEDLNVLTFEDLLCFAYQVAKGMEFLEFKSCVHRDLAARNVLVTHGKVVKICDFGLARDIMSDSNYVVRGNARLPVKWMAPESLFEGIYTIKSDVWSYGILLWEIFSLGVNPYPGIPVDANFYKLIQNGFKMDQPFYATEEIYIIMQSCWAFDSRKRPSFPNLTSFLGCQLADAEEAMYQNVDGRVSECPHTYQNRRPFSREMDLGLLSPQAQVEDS

[5] = test system: TMD8 cells; assay: RNA-seq gene expression; conditions: TMD8, 1 μM, 8 h; for number of genes reduced vs DMSO: FDR < 0.01, log2FC < -0.5; for number of genes increased vs DMSO: FDR < 0.01, log2FC > 0.5

T1 sequence (P54764 20-986): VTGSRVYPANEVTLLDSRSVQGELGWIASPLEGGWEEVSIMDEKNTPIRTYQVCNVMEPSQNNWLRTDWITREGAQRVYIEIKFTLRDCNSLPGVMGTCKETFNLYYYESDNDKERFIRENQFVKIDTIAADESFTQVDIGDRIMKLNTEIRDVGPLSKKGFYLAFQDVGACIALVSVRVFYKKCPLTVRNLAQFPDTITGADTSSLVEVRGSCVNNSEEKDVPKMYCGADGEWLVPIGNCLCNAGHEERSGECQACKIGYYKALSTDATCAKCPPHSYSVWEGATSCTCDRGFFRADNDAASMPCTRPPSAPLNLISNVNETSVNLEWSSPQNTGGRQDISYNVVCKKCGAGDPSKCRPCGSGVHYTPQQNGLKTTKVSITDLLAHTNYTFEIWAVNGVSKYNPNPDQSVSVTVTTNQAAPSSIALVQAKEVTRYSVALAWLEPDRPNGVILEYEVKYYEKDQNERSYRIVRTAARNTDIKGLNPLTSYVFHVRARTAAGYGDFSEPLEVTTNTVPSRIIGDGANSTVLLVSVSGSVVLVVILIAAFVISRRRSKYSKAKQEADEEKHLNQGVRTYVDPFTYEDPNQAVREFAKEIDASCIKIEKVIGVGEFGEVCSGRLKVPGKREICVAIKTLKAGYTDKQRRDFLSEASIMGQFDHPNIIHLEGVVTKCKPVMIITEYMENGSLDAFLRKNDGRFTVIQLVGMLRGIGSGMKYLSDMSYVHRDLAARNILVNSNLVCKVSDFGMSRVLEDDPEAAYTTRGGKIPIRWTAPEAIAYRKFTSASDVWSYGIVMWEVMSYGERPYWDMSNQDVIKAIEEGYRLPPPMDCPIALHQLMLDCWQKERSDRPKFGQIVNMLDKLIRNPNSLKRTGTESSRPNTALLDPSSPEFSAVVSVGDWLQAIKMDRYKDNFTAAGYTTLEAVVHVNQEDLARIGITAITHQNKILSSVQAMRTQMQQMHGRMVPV

Row | Compound | %Control difference from compound Ib at 1 µM ([1]; @1000nM) [%] | remaining binding at 1 µM ([1]; @1000nM, read-out: %Control) [%] | remaining binding at 1 µM ([1]; read-out: %Control @1000nM) [%] | difference in %Control versus compound Ib at 1 µM ([2]; @1000nM) [%] | remaining binding at 1 µM ([2]; @1000nM, read-out: %Control) [%] | remaining binding at 1 µM ([2]; read-out: %Control @1000nM) [%] | difference in %Control versus compound Ib at 1 µM ([3]; @1000nM) [%] | remaining binding at 1 µM ([3]; @1000nM, read-out: %Control) [%] | remaining binding at 1 µM ([3]; read-out: %Control @1000nM) [%] | difference in %Control from compound Ib at 1 µM ([4]; @1000nM) [%] | remaining binding at 1 µM ([4]; @1000nM, read-out: %Control) [%] | remaining binding at 1 µM ([4]; read-out: %Control @1000nM) [%] | number of genes unchanged vs DMSO [5] [genes] | number of genes reduced vs DMSO [5] [genes] | number of genes increased vs DMSO [5] [genes]
1 | CCOC(=O)c1cnc(S(C)(=O)=O)nc1N1CCC[C@@H](n2nc(-c3ccc(Oc4ccccc4)cc3)c3c(N)ncnc32)C1 [Compound 8c, Ethyl (R)-4-(3-(4-Amino-3-(4-phenoxyphenyl)-1H-pyrazolo[3,4-d]pyrimidin-1-yl)piperidin-1-yl)-2-(methylsulfonyl)pyrimidine-5-carboxylate] | 9 | 100 | 100 | 19 | 88 | 88 | -4 | 96 | 96 | 60 | 93 | 93 | 15047 | 0 | 0
2 | Cc1cnc(S(C)(=O)=O)nc1N1CCCC(n2nc(-c3ccc(Oc4ccccc4)cc3)c3c(N)ncnc32)C1 (centres unmarked) [Compound 8a, 1-(1-(5-Methyl-2-(methylsulfonyl)pyrimidin-4-yl)piperidin-3-yl)-3-(4-phenoxyphenyl)-1H-pyrazolo[3,4-d]pyrimidin-4-amine] | 9 | 100 | 100 | 13 | 82 | 82 | 0 | 100 | 100 | 21 | 54 | 54 | 14761 | 189 | 97
3 | C=CC(=O)N1CCC[C@@H](n2nc(-c3ccc(Oc4ccccc4)cc3)c3c(N)ncnc32)C1 [Compound 1g, Ibrutinib, reference compound] |  | 91 | 91 |  | 69 | 69 |  | 100 | 100 |  | 33 | 33 | 14846 | 125 | 76
4 | COC(=O)c1cnc(S(C)(=O)=O)nc1N1CCCC(n2nc(-c3ccc(Oc4ccccc4)cc3)c3c(N)ncnc32)C1 (centres unmarked) [Compound 8b, Methyl 4-(3-(4-Amino-3-(4-phenoxyphenyl)-1H-pyrazolo[3,4-d]pyrimidin-1-yl)piperidin-1-yl)-2-(methylsulfonyl)pyrimidine-5-carboxylate] | 7 | 98 | 98 | 8 | 77 | 77 | 0 | 100 | 100 | 47 | 80 | 80 | 15031 | 15 | 1
